From BindingDB's records for PubMed 32898763 (n/a, 2020)

Columns and labels:
[1] = biological target: T1, Prostaglandin G/H synthase 2 (Homo sapiens, UniProt P35354); test: Inhibition of COX-2 (unknown origin)
T1 sequence (P35354 whole entry): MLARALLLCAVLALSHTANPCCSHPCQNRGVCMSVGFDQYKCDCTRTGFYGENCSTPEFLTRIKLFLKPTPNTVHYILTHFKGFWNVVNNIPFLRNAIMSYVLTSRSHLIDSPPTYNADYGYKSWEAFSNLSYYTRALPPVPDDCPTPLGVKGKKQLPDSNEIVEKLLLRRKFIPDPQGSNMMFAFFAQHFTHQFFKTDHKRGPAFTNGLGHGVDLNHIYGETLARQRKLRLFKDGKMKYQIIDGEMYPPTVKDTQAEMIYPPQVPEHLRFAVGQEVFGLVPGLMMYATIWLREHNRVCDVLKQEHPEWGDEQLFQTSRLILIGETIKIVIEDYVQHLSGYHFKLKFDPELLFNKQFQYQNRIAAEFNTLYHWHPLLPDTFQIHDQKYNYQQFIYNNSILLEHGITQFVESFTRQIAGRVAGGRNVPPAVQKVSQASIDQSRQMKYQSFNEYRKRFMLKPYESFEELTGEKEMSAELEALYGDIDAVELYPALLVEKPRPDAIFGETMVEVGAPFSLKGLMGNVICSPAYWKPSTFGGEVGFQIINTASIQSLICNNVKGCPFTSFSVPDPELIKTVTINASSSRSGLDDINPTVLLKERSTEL

[2] = biological target: Prostaglandin G/H synthase 1 (Homo sapiens, UniProt P23219); test: Inhibition of COX-1 (unknown origin)
Prostaglandin G/H synthase 1, sequence (P23219 whole entry): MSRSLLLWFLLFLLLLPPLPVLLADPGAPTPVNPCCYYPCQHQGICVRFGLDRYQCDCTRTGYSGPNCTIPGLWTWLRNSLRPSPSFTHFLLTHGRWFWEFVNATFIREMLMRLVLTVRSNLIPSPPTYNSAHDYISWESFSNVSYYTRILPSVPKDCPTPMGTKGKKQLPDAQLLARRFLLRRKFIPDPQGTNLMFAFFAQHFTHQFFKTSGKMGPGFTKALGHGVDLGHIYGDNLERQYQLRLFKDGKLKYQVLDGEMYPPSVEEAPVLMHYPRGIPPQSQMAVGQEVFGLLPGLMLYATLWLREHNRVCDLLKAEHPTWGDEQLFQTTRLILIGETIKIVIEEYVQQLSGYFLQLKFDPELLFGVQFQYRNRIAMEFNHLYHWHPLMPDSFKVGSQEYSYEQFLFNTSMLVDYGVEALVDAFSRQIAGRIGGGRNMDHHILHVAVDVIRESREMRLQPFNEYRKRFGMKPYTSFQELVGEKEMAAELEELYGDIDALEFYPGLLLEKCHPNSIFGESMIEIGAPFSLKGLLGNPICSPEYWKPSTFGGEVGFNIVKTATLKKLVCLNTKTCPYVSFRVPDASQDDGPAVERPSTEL

Row | IC50 [1] [µM] | IC50 [2] [µM] | SMILES
1 | 0.1 | 9.56 | CCC(=CCN1Cc2cc(Cl)cc3nc(S)n(c23)CC1C)CC (stereo unspecified)
2 | 0.1 | 9.56 | CC1Cn2c(S)nc3cc(Cl)cc(c32)CN1CC1CCC1 (stereo unspecified)
3 | 0.1 | 9.56 | CCC(=CCN1Cc2cc(C)cc3nc(O)n(c23)C[C@@H]1C)CC
